Data set [1] deals with NO production in RAW264.7 cells activated by lipopolysaccharide. Kind of data set: Inhibition of NO production in LPS-activated RAW264.7 cells (Griess assay). The format is cell-based, murine. The conditions noted are these: for SI, selectivity index, calculated by CC50/IC50: CC50 (MTT) / IC50 (NO production); for IC50: read-out: IC50, inhibition of LPS-induced NO production. Here is the method:
After pre-incubation of RAW 264.7 cells (1.5 × 10^5 cells/mL) with LPS (1 µg/mL) and samples at 37 °C for 24 h, the quantity of nitrite accumulated in the culture medium was measured as an indicator of NO production. Briefly, 50 µL of cell culture medium were mixed with 100 µL Griess reagent, and incubated at room temperature for 10 min. The absorbance was determined at 540 nm wavelength with a microplate reader (Multiskan GO, Thermo Scientific, Waltham, MA, USA).

Data set [2] in a line: Cell viability, MTT assay, with LPS treatment. In kind it is cell-based, murine. Particulars: mouse, RAW 264.7 cells, MTT, LPS 1 µg/mL, 24 h, mean ± SD, n = 3. The method, then:
(§1) In this work, all isolated compounds (1–22) were evaluated for their inhibition of nitric oxide (NO) production in RAW264.7 cells activated by lipopolysaccharide (LPS) using the Griess assay with indomethacin as a positive control (Table 3). […] To investigate whether the inhibitory activities of the active compounds were due to their cytotoxicity, the effects of the tested compounds on cell proliferation/viability were evaluated using the MTT method. […] Therefore, further studies are required to clarify the underlying mechanism of the active compounds.
(§2) Cell viability was measured using the conventional MTT assay. RAW 264.7 cells were seeded in 96-well plates at a density of 1.5 × 10^5 cells/mL. After 12 h, the cells were treated with LPS (1 µg/mL) and samples, followed by additional incubation for 24 h at 37 °C. MTT stock solution (2 mg/mL) was added to wells for a total reaction volume of 110 µL. After 4 h incubation, the supernatants were aspirated. The formazan crystals in each well were dissolved in 50 µL of DMSO, and the absorbance was measured using a microplate reader (Multiskan GO, Thermo Scientific, Waltham, MA, USA) at the wavelength of 490 nm. Relative cell viability was evaluated based on the quantity of MTT converted to the insoluble formazan salt. The optical density of formazan generated in the control cells represented 100% viability. The data were expressed as mean percentages of the viable cells compared to the respective control.
A general note: Tetrazolium dyes change colour on reduction, which living cells bring about.

For data set [3], the system named is RAW 264.7 cells. Put plainly: Cell viability, MTT assay, with LPS treatment. The format is cell-based, murine. The conditions noted are these: up to 100 μM, with LPS treatment for 24 h. The method, then:
as §1, §2

The test system of data set [4] is RTX-induced mouse ear edema. Details: method as in PMID 10840958. The conditions noted are these: 50 µg per ear, topical; cited from earlier work.
Data set [5] has as its system spontaneous synchronous Ca^2+ oscillations. Further details: method as in PMID 32237750. The conditions noted are these: cited from earlier work.
Data set [6] concerns indoleamine 2,3-dioxygenase 1 (IDO1). Further details: method as in doi:10.1039/C9QO00775J. Particulars: cited from earlier work.
For data set [7], the system named is C. albicans. Details: method as in PMID 22377027. The conditions noted are these: against C. albicans; cited from earlier work.
The test system of data set [8] is iNOS and COX-2 proteins and mRNA expressions in RAW 264.7 macrophages. Details: method as in not given. Particulars: ref not given; cited from earlier work.
The test system of data set [9] is NO production in lipopolysaccharide activated RAW264.7 cells. Details: method as in PMID 29197643. Particulars: LPS-activated RAW264.7 cells, in vitro; read-out: IC50, inhibition of NO production; cited from earlier work.
Where [10] appears, read: Mus musculus, RAW264.7, 24 h, RAW 264.7 cells, LPS 1 µg/mL, 24 h, Griess assay, mean ± SD, n = 3.
Setting [11] is: RAW 264.7 cells activated with LPS.
Where [12] appears, read: RAW 264.7 cells, LPS 1 µg/mL, 24 h, Griess assay, mean ± SD, n = 3.

The values that follow come from PMC7460390, “Secondary Metabolites with Nitric Oxide Inhibition from Marine-Derived Fungus Alternaria sp. 5102” (Marine Drugs, 2020).

Where two headings read alike, the source gives them in different places.

Consider `COc1cc(O)c2c(c1)C1(OC2=O)C(C)=CC(=O)C1O` (racemic) [Compound 10, ±talaroflavone], for which the “SI, selectivity index, calculated by CC50/IC50” value in data set [1] (RAW 264.7 cells) is on record as 1.1. Moreover, the IC50 in [1] (setting [10]) is 23.9 ± 3.3 µM. For the same compound, the CC50 at 24 h in [2] (setting [11]) turned out to be 27.2 ± 1.6 µM.

With `CC(O)C(C)OC(=O)CC1OC(=O)c2c(O)cccc21` (centres unmarked) [Compound 1, alternabenzofuran A], the IC50 in [1] (setting [10]) was greater than 50 µM. Further, in data set [2] (setting [11]), the CC50 at 24 h was greater than 100 µM.

Consider `C[C@H](O)[C@@H](C)OC(=O)C[C@@H]1OC(=O)c2c(O)cccc21` [Compound 2, alternabenzofuran B], for which, in data set [1] (setting [10]), the IC50 came out at 18.7 ± 2.35 µM. For the same compound, in data set [2] (setting [11]), the CC50 at 24 h is greater than 100 µM. Also, the “Cytotoxicity (cell proliferation/viability, MTT)” value in data set [3] is given as “did not show any significant cytotoxicity”.

`CC1=CC(=O)C2(C)CCCC(C)(CO)C23CC13` (centres unmarked) [Compound 3, alternaterpenoid A]: the “SI, selectivity index, calculated by CC50/IC50” value in data set [1] (RAW 264.7 cells) is reported as 10.4. This compound also registered a 50% cytotoxic concentration (CC50) at 24 h in data set [2] (setting [11]) of 24.9 ± 1.2 µM.

Regarding `CC1(C)CCCC2(C)C(=O)C=C(CO)C3CC312` (centres unmarked) [Compound 4, alternaterpenoid B], in data set [1] (setting [10]), the IC50 was roughly 50 µM. The same compound had a CC50 at 24 h in [2] (setting [11]) greater than 100 µM.

In the case of `COC(=O)C[C@@H]1OC(=O)c2c(O)cccc21` [Compound 5, isobenzofuranone A], the IC50 in data set [1] (setting [10]) came out at 41.1 ± 4.78 µM. Moreover, the CC50 at 24 h in data set [2] (setting [11]) is greater than 100 µM.

With `COc1cc(O)c2c(c1)C1=C(O)C(=O)C[C@@]1(C)OC2=O` [Compound 7, (R)-1,6-dihydroxy-8-methoxy-3a-methyl-3,3a-dihydrocyclopenta[c]isochromene-2,5-dione], the “SI, selectivity index, calculated by CC50/IC50” value in data set [1] (RAW 264.7 cells) is 4.0. The results for the 50% inhibitory concentration (IC50) in data set [1] (setting [10]) and in data set [1] (setting [12]) were less than 10 µM and 5.2 ± 1.96 µM, respectively. Further, the CC50 at 24 h in data set [2] (setting [11]) stood at 20.6 ± 2.3 µM.

On to `COc1cc(O)c2c(=O)oc3c(c2c1)[C@@H](C)CC3=O` [Compound 8, dihydroaltenuenes A], for which the concentration for half-maximal inhibition (IC50) in data set [1] (setting [10]) is greater than 50 µM. In addition, the CC50 at 24 h in data set [2] (setting [11]) is greater than 100 µM.

As for `COc1cc(O)c2c(=O)oc3c(c2c1)[C@@H](C)C[C@@H]3O` [Compound 9, phialophriol], in data set [2] (setting [11]), the CC50 at 24 h is greater than 100 µM. In addition, the “Cytotoxicity (cell proliferation/viability, MTT)” value in [3] is “did not show any significant cytotoxicity”.

Consider `COc1cc(O)c2c(=O)oc3cc(O)cc(C)c3c2c1` [Compound 11, alternariol-9-O-methyl ether], for which the IC50 in data set [1] (Mus musculus, RAW264.7, 24 h) was found to be 39 ± 1.92 µM. The compound also showed a CC50 at 24 h in [2] greater than 100 µM. For the same compound, the “Cytotoxicity (cell proliferation/viability, MTT)” value in [3] is recorded as “did not show any significant cytotoxicity”.

For the compound `Cc1cc(O)cc2oc(=O)c3c(O)cc(O)cc3c12` [Compound 12, alternariol], the “SI, selectivity index, calculated by CC50/IC50” value in [1] (RAW 264.7 cells) is 3.0. In addition, the IC50 in data set [1] (Mus musculus, RAW264.7, 24 h) was 16.6 ± 1.6 µM. In data set [2], this compound registered a CC50 at 24 h of 50.4 ± 2.1 µM.

In the case of `COc1cc(O)c2c(=O)oc3cc(O)c(C)cc3c2c1` [Compound 13, 2-methyl-9-methoxy alternariol], in data set [1] (RAW 264.7 cells), the “SI, selectivity index, calculated by CC50/IC50” value was 2.0. Moreover, the concentration for half-maximal inhibition (IC50) in data set [1] (Mus musculus, RAW264.7, 24 h) was determined as 24.5 ± 4.51 µM. In [2], this compound gave a CC50 at 24 h of 48.2 ± 2.6 µM.

Regarding `COc1cc(O)c2c(=O)oc3c(O)c(O)cc(C)c3c2c1` [Compound 14, 3’-hydroxyalternariol 5-O-methyl ether], the IC50 was less than 10 µM in [1] (setting [10]) and 5.9 ± 0.48 µM in data set [1] (setting [12]). Further, the CC50 in data set [2] was greater than 100 µM. The “Cytotoxicity (cell proliferation/viability, MTT)” value in [3] is reported as “did not show any significant cytotoxicity”.

As to `COc1cc(O)c2c(=O)oc3cc(CO)cc(O)c3c2c1` [Compound 15, alternariol-1’-hydroxy-9-methyl ether], the “SI, selectivity index, calculated by CC50/IC50” value in [1] (RAW 264.7 cells) is given as 1.9. In data set [1] (Mus musculus, RAW264.7, 24 h), the IC50 came out at 26.3 ± 3.99 µM. This compound also yielded a CC50 at 24 h in data set [2] of 48.7 ± 1.8 µM.

Consider `COc1cc(O)c2c(c1)C1=CC(=O)C(O)=CC1(C)OC2=O` (centres unmarked) [Compound 16, dehydroaltenusin], for which the IC50 in data set [1] (setting [10]) lay within 1.3 to 41.1 µM.

As for `COc1cc(O)c2c(c1)-c1cc(O)c(O)cc1COC2=O` [Compound 17, alteryulactone], the IC50 in data set [1] (Mus musculus, RAW264.7, 24 h) turned out to be 16.2 ± 2.62 µM. In data set [2], this compound displayed a CC50 at 24 h greater than 100 µM. Besides, the “Cytotoxicity (cell proliferation/viability, MTT)” value in data set [3] is reported as “did not show any significant cytotoxicity”.

For the compound `COC(=O)C1Cc2cccc(O)c2C(=O)O1` (centres unmarked) [Compound 18, tenuissimasatin], the “SI, selectivity index, calculated by CC50/IC50” value in data set [1] (RAW 264.7 cells) is 1.2. Moreover, in [1] (setting [10]), the IC50 was 24.5 ± 1.06 µM. Further, the CC50 at 24 h in data set [2] (setting [11]) worked out at 28.3 ± 2.5 µM.

On to `COc1cc(O)c(C(=O)O)c(-c2cc(O)c(O)cc2C)c1` [Compound 20, altenusin], for which, in data set [1] (Mus musculus, RAW264.7, 24 h), the IC50 came out at 25.4 ± 3.03 µM. The same compound displayed a CC50 at 24 h in [2] greater than 100 µM.

Consider `Cc1cc(=O)c2c(C)cc(O)cc2o1` [Compound 21, 2,5-dimethyl-7-hydroxychromone], for which the “SI, selectivity index, calculated by CC50/IC50” value in data set [1] (RAW 264.7 cells) is on record as 1.2. In data set [1] (setting [10]), the half-maximal inhibitory concentration (IC50) amounted to 14.9 ± 1.92 µM. The compound also registered a CC50 at 24 h in [2] (setting [11]) of 17.3 ± 2.2 µM.

As for `C[C@H]1CC(=O)OC[C@H]1O` [Compound 22, walterolactone C], the “SI, selectivity index, calculated by CC50/IC50” value in data set [1] (RAW 264.7 cells) is given as 3.1. Also, the half-inhibitory concentration (IC50) in [1] (setting [10]) came out at 14.9 ± 1.92 µM. Besides, the CC50 at 24 h in data set [2] (setting [11]) turned out to be 46.4 ± 1.7 µM.

For the compound `CCC(C)[C@]1(O)NC(=O)[C@@H](C)n2c1nc1c(c2=O)C=C(OC)C=CO1` (some centres unmarked) [Oxepinamide A], in [4], the “Inhibition rate, ear edema” value was 82%.

For `C=C1CC[C@H]2C(C)(C)[C@@H](O)CC[C@]2(C)[C@H]1CC(=O)[C@]1(O)C=C(CSC[C@H](O)C(=O)OC)C(=O)C1` [alternarin A], the “Inhibition of spontaneous synchronous Ca2+ oscillations” value in [5] is given as “effective inhibition”.

As for `COC1=CC(=O)c2c(O)c3c(c4c2[C@]12CC(=O)C[C@H]2[C@@]1(C[C@H](O)[C@H](O)CO1)O4)C[C@](C)(O)[C@H](O)C3` [anthrininone A], the “Inhibition activity against IDO1” value in data set [6] is listed as “significant inhibition activity”.

Consider `COc1cc([C@H](Cc2ccccc2)NC(C)=O)oc(=O)c1` [pyrophen], for which the Anti-fungal activity result in [7] is reported as “displayed anti-fungal activity”.

In the case of `CC1=C[C@@H](O)[C@H]2C[C@@H](C)C[C@@H](C)[C@@H]2[C@H]1/C=C/C=C/C(=O)O` [tanzawaic acid Q], the “Effect on LPS-induced iNOS and COX-2 proteins and mRNA expressions” value in data set [8] is recorded as “inhibited”.

Consider Amestolkolides B, for which the IC50 in [9] was 1.6 ± 0.1 µM.

Usually IC50 stands for the concentration needed to halve the response being measured. The term CC50 denotes the concentration that lowers cell viability or growth by half. Higher therefore signals better tolerance by the cells.
